Consider one molecule from paper PMC5218480 (PLoS ONE, 2017).

The assay concerns MV-4-11 cells. The experiment in a line: Gene expression microarray analysis (Affymetrix PrimeView) and GSEA. It is filed as cell-based, human. The note with it: ProbeSet 11727958_a_at; LIST B. The arrangement: RFU PODN (11730768_x_at) / Fold change /veh PODN (11730768_x_at) / RFU LINC00158 (11744669_a_at) / Fold change /veh LINC00158 (11744669_a_at) / RFU DUSP10 (11751237_a_at) / Fold change /veh DUSP10 (11751237_a_at) / RFU ID3 (11757404_x_at) / Fold change /veh ID3 (11757404_x_at) / RFU PLEKHG5 (11737974_s_at) / Fold change /veh PLEKHG5 (11737974_s_at) / RFU LRRC4B (11730491_at) / Fold change /veh LRRC4B (11730491_at) / RFU GIMAP4 (11747438_a_at) / Fold change /veh GIMAP4 (11747438_a_at) / RFU KRT8 (11758183_x_at) / Fold change /veh KRT8 (11758183_x_at) / RFU CNN1 (11734310_a_at) / Fold change /veh CNN1 (11734310_a_at) / RFU VPS37D (11726825_at) / Fold change /veh VPS37D (11726825_at) / RFU C10orf10 (11716522_x_at) / Fold change /veh C10orf10 (11716522_x_at) / RFU KIR2DL2 /// KIR2DL4 /// KIR2DL5A /// KIR2DL5B /// KIR2DS1 /// KIR2DS2 /// KIR2DS3 /// KIR2DS4 /// KIR3DL3 /// KIR3DL3 /// KIR3DS1 (11738374_at) / Fold change /veh KIR2DL2 /// KIR2DL4 /// KIR2DL5A /// KIR2DL5B /// KIR2DS1 /// KIR2DS2 /// KIR2DS3 /// KIR2DS4 /// KIR3DL3 /// KIR3DL3 /// KIR3DS1 (11738374_at) / RFU C1QL1 (11718748_at) / Fold change /veh C1QL1 (11718748_at) / RFU TMPRSS4 (11747572_a_at) / Fold change /veh TMPRSS4 (11747572_a_at) / RFU HAMP (11756126_x_at) / Fold change /veh HAMP (11756126_x_at) / RFU RNFT2 (11725882_a_at) / Fold change /veh RNFT2 (11725882_a_at) / RFU NR4A2 (11747474_a_at) / Fold change /veh NR4A2 (11747474_a_at) / RFU ABCC12 (11746883_a_at) / Fold change /veh ABCC12 (11746883_a_at) / RFU TMEM136 (11760407_x_at) / Fold change /veh TMEM136 (11760407_x_at) / RFU CLDN22 /// WWC2 (11732394_at) / Fold change /veh CLDN22 /// WWC2 (11732394_at) / RFU HLA-DPB1 (11760878_x_at) / Fold change /veh HLA-DPB1 (11760878_x_at) / RFU SPINT1 (11716480_a_at) / Fold change /veh SPINT1 (11716480_a_at) / RFU GAP43 (11754022_s_at) / Fold change /veh GAP43 (11754022_s_at) / RFU A4GNT (11735810_at) / Fold change /veh A4GNT (11735810_at) / RFU PRB3 (11715151_x_at) / Fold change /veh PRB3 (11715151_x_at) / RFU TUBB4B (11761932_at) / Fold change /veh TUBB4B (11761932_at) / RFU CAPN14 (11732068_a_at) / Fold change /veh CAPN14 (11732068_a_at) / RFU TMCC2 (11721928_a_at) / Fold change /veh TMCC2 (11721928_a_at) / RFU IRGQ (11745062_a_at) / Fold change /veh IRGQ (11745062_a_at) / RFU FAM174B (11720279_a_at) / Fold change /veh FAM174B (11720279_a_at) / RFU TMPRSS4 (11748680_a_at) / Fold change /veh TMPRSS4 (11748680_a_at) / RFU FAM212B (11763350_a_at) / Fold change /veh FAM212B (11763350_a_at) / RFU PLEKHG5 (11743358_a_at) / Fold change /veh PLEKHG5 (11743358_a_at) / RFU ZSCAN30 (11745921_a_at) / Fold change /veh ZSCAN30 (11745921_a_at) / RFU CMKLR1 (11741424_a_at) / Fold change /veh CMKLR1 (11741424_a_at) / RFU LOC101060620 /// MAPK8IP1 (11723275_at) / Fold change /veh LOC101060620 /// MAPK8IP1 (11723275_at) / RFU SPTSSB (11747773_x_at) / Fold change /veh SPTSSB (11747773_x_at) / RFU PRSS12 (11739890_at) / Fold change /veh PRSS12 (11739890_at) / RFU BIN1 (11741810_x_at) / Fold change /veh BIN1 (11741810_x_at) / RFU WNT11 (11732464_a_at) / Fold change /veh WNT11 (11732464_a_at) / RFU C10orf10 (11716521_a_at) / Fold change /veh C10orf10 (11716521_a_at) / RFU C5orf56 (11738089_at) / Fold change /veh C5orf56 (11738089_at) / RFU CYB561 (11721691_x_at) / Fold change /veh CYB561 (11721691_x_at) / RFU ANKRD19P (11752326_a_at) / Fold change /veh ANKRD19P (11752326_a_at) / RFU OR2T12 /// OR2T33 /// OR2T8 (11738714_s_at) / Fold change /veh OR2T12 /// OR2T33 /// OR2T8 (11738714_s_at) / RFU VCAN (11748164_a_at) / Fold change /veh VCAN (11748164_a_at) / RFU JSRP1 (11732532_at) / Fold change /veh JSRP1 (11732532_at) / RFU KRTAP10-11 (11738290_x_at) / Fold change /veh KRTAP10-11 (11738290_x_at) / RFU MYO3A (11730013_a_at) / Fold change /veh MYO3A (11730013_a_at) / RFU EBF3 (11725865_a_at) / Fold change /veh EBF3 (11725865_a_at) / RFU CAMK2N1 (11719241_x_at) / Fold change /veh CAMK2N1 (11719241_x_at) / RFU C5orf56 (11738088_a_at) / Fold change /veh C5orf56 (11738088_a_at) / RFU OLFML3 (11715873_a_at) / Fold change /veh OLFML3 (11715873_a_at) / RFU LOC100653217 /// NTM (11731650_a_at) / Fold change /veh LOC100653217 /// NTM (11731650_a_at) / RFU MAPK11 (11762145_a_at) / Fold change /veh MAPK11 (11762145_a_at) / RFU FIZ1 (11724087_x_at) / Fold change /veh FIZ1 (11724087_x_at) / RFU OASL (11726364_x_at) / Fold change /veh OASL (11726364_x_at) / RFU SOX15 (11748057_x_at) / Fold change /veh SOX15 (11748057_x_at) / RFU CD79A (11719716_a_at) / Fold change /veh CD79A (11719716_a_at) / RFU HIST1H1D (11736915_at) / Fold change /veh HIST1H1D (11736915_at) / RFU CASKIN2 (11723855_a_at) / Fold change /veh CASKIN2 (11723855_a_at) / RFU LOC730098 (11760151_x_at) / Fold change /veh LOC730098 (11760151_x_at) / RFU OR4N2 (11742367_at) / Fold change /veh OR4N2 (11742367_at) / RFU PRRT2 (11749266_a_at) / Fold change /veh PRRT2 (11749266_a_at) / RFU SNX32 (11753110_a_at) / Fold change /veh SNX32 (11753110_a_at) / RFU CDHR5 (11726645_a_at) / Fold change /veh CDHR5 (11726645_a_at) / RFU RCAN1 (11760418_a_at) / Fold change /veh RCAN1 (11760418_a_at) / RFU FAM167A (11723789_a_at) / Fold change /veh FAM167A (11723789_a_at) / RFU FAM26E (11764081_at) / Fold change /veh FAM26E (11764081_at) / RFU ISYNA1 (11749810_s_at) / Fold change /veh ISYNA1 (11749810_s_at) / RFU ACY1 (11761880_at) / Fold change /veh ACY1 (11761880_at) / RFU 11764098_at / Fold change /veh 11764098_at / RFU SAMD14 (11745864_x_at) / Fold change /veh SAMD14 (11745864_x_at) / RFU NPB (11741838_a_at) / Fold change /veh NPB (11741838_a_at) / RFU TMPRSS6 (11731388_a_at) / Fold change /veh TMPRSS6 (11731388_a_at) / RFU KRTAP10-2 (11738614_at) / Fold change /veh KRTAP10-2 (11738614_at) / RFU ARHGAP8 /// PRR5-ARHGAP8 (11727945_x_at) / Fold change /veh ARHGAP8 /// PRR5-ARHGAP8 (11727945_x_at) / RFU KRTAP5-7 /// NADSYN1 (11734609_at) / Fold change /veh KRTAP5-7 /// NADSYN1 (11734609_at) / RFU RASL12 (11751679_a_at) / Fold change /veh RASL12 (11751679_a_at) / RFU CDKN2B (11736163_a_at) / Fold change /veh CDKN2B (11736163_a_at) / RFU PRF1 (11729649_at) / Fold change /veh PRF1 (11729649_at) / RFU, ZNF638 /// ZNF638-IT1 / Fold change vs veh, ZNF638 /// ZNF638-IT1 / RFU, PANK3 / Fold change vs veh, PANK3 / RFU, SH3YL1 / Fold change vs veh, SH3YL1 / RFU, ZEB2 / Fold change vs veh, ZEB2 / RFU, NRIP1 / Fold change vs veh, NRIP1 / RFU, PTTG1IP / Fold change vs veh, PTTG1IP / RFU, CAPN2 / Fold change vs veh, CAPN2 / RFU, MED14 / Fold change vs veh, MED14 / RFU, SNORA58 / Fold change vs veh, SNORA58 / RFU, C1orf63 / Fold change vs veh, C1orf63 / RFU, LRRFIP1 / Fold change vs veh, LRRFIP1 / RFU, NDUFAF7 / Fold change vs veh, NDUFAF7 / RFU, SLC12A2 / Fold change vs veh, SLC12A2 / RFU, IBTK / Fold change vs veh, IBTK / RFU, ESF1 / Fold change vs veh, ESF1 / Fold change vs veh, TMEM50B / RFU, TAOK1 / Fold change vs veh, TAOK1 / RFU, ACBD3 / Fold change vs veh, ACBD3 / RFU, TMA16 / Fold change vs veh, TMA16 / RFU, RWDD3 / Fold change vs veh, RWDD3 / RFU, BCAT1 / Fold change vs veh, BCAT1 / RFU, EDEM3 / Fold change vs veh, EDEM3 / RFU, TMEM33 / Fold change vs veh, TMEM33 / RFU, WDR75 / Fold change vs veh, WDR75 / RFU, AHCTF1 / Fold change vs veh, AHCTF1 / RFU, TFRC / Fold change vs veh, TFRC / RFU, ZDHHC17 / Fold change vs veh, ZDHHC17 / RFU, NOM1 / Fold change vs veh, NOM1 / RFU, ARL8B / Fold change vs veh, ARL8B / RFU, ZBTB11 / Fold change vs veh, ZBTB11 / RFU, TAMM41 / Fold change vs veh, TAMM41 / RFU, KIAA1704 /// LOC100996395 / Fold change vs veh, KIAA1704 /// LOC100996395 / RFU, ING1 / Fold change vs veh, ING1 / RFU, TRMT61B / Fold change vs veh, TRMT61B / RFU, FUBP3 / Fold change vs veh, FUBP3 / RFU, TP53 / Fold change vs veh, TP53 / RFU, TNKS2 / Fold change vs veh, TNKS2 / RFU, ZFP14 / Fold change vs veh, ZFP14 / RFU, ACTR2 / Fold change vs veh, ACTR2 / RFU, PPP3R1 / Fold change vs veh, PPP3R1 / RFU, PIK3R1 / Fold change vs veh, PIK3R1 / RFU, HNRNPA1 / Fold change vs veh, HNRNPA1 / RFU, RNF170 / Fold change vs veh, RNF170 / RFU, ZNF28 / Fold change vs veh, ZNF28 / RFU, RNGTT / Fold change vs veh, RNGTT / RFU, OGT / Fold change vs veh, OGT / RFU, BRD1 / Fold change vs veh, BRD1 / RFU, MARS / Fold change vs veh, MARS / RFU, ZNF655 / Fold change vs veh, ZNF655 / RFU, FAHD1 / Fold change vs veh, FAHD1 / RFU, BDP1 / Fold change vs veh, BDP1 / RFU, LRRCC1 / Fold change vs veh, LRRCC1 / RFU, ARID1A / Fold change vs veh, ARID1A / RFU, ZNF146 / Fold change vs veh, ZNF146 / RFU, ZNF330 / Fold change vs veh, ZNF330 / RFU, GPN3 / Fold change vs veh, GPN3 / RFU, C9orf123 / Fold change vs veh, C9orf123 / RFU, N4BP2L2 / Fold change vs veh, N4BP2L2 / RFU, ARFIP1 / Fold change vs veh, ARFIP1 / RFU, FAM179B / Fold change vs veh, FAM179B / RFU, BCL10 / Fold change vs veh, BCL10 / RFU, UHRF1BP1L / Fold change vs veh, UHRF1BP1L / RFU, BET1 / Fold change vs veh, BET1 / RFU, CNOT2 / Fold change vs veh, CNOT2 / RFU, ZNF268 / Fold change vs veh, ZNF268 / Fold change vs veh, ZNF507 / RFU, DGCR2 / Fold change vs veh, DGCR2 / RFU, WDSUB1 / Fold change vs veh, WDSUB1 / Fold change vs veh, HSP90B1 /// MIR3652 / RFU, ADSS / Fold change vs veh, ADSS / RFU, GK / Fold change vs veh, GK / RFU, ZNF148 / Fold change vs veh, ZNF148 / RFU, TAF9 / Fold change vs veh, TAF9 / RFU, SLC1A5 / Fold change vs veh, SLC1A5 / RFU, SLMO2 / Fold change vs veh, SLMO2 / RFU, ABCC4 / Fold change vs veh, ABCC4 / RFU, LOC101060439 /// RAP1B / Fold change vs veh, LOC101060439 /// RAP1B / RFU, RFX7 / Fold change vs veh, RFX7 / RFU, GTPBP10 / Fold change vs veh, GTPBP10 / RFU, CNEP1R1 / Fold change vs veh, CNEP1R1 / RFU, BIVM-ERCC5 /// ERCC5 / Fold change vs veh, BIVM-ERCC5 /// ERCC5 / RFU, ILF3 / Fold change vs veh, ILF3 / RFU 11762660_at / Fold change /veh 11762660_at / RFU VCAN (11757783_s_at) / Fold change /veh VCAN (11757783_s_at) / RFU DDX43 (11728927_at) / Fold change /veh DDX43 (11728927_at) / RFU KRT8 (11758188_x_at) / Fold change /veh KRT8 (11758188_x_at) / RFU NKD1 (11759106_at) / Fold change /veh NKD1 (11759106_at) / RFU SRD5A1 (11742802_a_at) / Fold change /veh SRD5A1 (11742802_a_at) / RFU TPSAB1 /// TPSB2 (11721975_s_at) / Fold change /veh TPSAB1 /// TPSB2 (11721975_s_at) / RFU GSTM3 (11746129_a_at) / Fold change /veh GSTM3 (11746129_a_at) / RFU IL23R (11737362_x_at) / Fold change /veh IL23R (11737362_x_at) / RFU TMEM51 (11727254_a_at) / Fold change /veh TMEM51 (11727254_a_at) / RFU PIWIL2 (11732686_x_at) / Fold change /veh PIWIL2 (11732686_x_at) / RFU ORM1 (11744905_x_at) / Fold change /veh ORM1 (11744905_x_at) / RFU CCDC152 (11743942_at) / Fold change /veh CCDC152 (11743942_at) / RFU ECM1 (11717891_a_at) / Fold change /veh ECM1 (11717891_a_at) / RFU IL23R (11748794_a_at) / Fold change /veh IL23R (11748794_a_at) / RFU TNFAIP8L3 (11732012_x_at) / Fold change /veh TNFAIP8L3 (11732012_x_at) / RFU MBOAT4 (11741988_at) / Fold change /veh MBOAT4 (11741988_at) / RFU 11764193_at / Fold change /veh 11764193_at / RFU TMEM53 (11763286_at) / Fold change /veh TMEM53 (11763286_at) / RFU MAGEB2 (11727129_at) / Fold change /veh MAGEB2 (11727129_at) / RFU TMEM200A (11744735_a_at) / Fold change /veh TMEM200A (11744735_a_at) / RFU CCDC152 (11751479_a_at) / Fold change /veh CCDC152 (11751479_a_at) / RFU FAM211A (11726209_a_at) / Fold change /veh FAM211A (11726209_a_at) / RFU RGS16 (11746705_a_at) / Fold change /veh RGS16 (11746705_a_at) / RFU VCAN (11755009_s_at) / Fold change /veh VCAN (11755009_s_at) / RFU RHOB (11743442_s_at) / Fold change /veh RHOB (11743442_s_at) / RFU RGS16 (11720943_a_at) / Fold change /veh RGS16 (11720943_a_at) / RFU RGS16 (11720944_at) / Fold change /veh RGS16 (11720944_at) / RFU, VPS4B / Fold change vs veh, VPS4B / RFU, CREB1 / Fold change vs veh, CREB1 / RFU, DNAJC13 / Fold change vs veh, DNAJC13 / RFU, GNAQ / Fold change vs veh, GNAQ / RFU, CDK5R1 / Fold change vs veh, CDK5R1 / RFU, ZRANB3 / Fold change vs veh, ZRANB3 / RFU, CUL4A / Fold change vs veh, CUL4A / RFU, CCNY / Fold change vs veh, CCNY / RFU, UFL1 / Fold change vs veh, UFL1 / RFU, COG3 / Fold change vs veh, COG3 / RFU, DIAPH2 / Fold change vs veh, DIAPH2 / RFU, SKA2 / Fold change vs veh, SKA2 / RFU, AFF3 / Fold change vs veh, AFF3 / RFU, LMF1 / Fold change vs veh, LMF1 / RFU, IPO11 / Fold change vs veh, IPO11 / RFU, DFFB / Fold change vs veh, DFFB / RFU, FOXP1 / Fold change vs veh, FOXP1 / RFU, CARD8 / Fold change vs veh, CARD8 / RFU, STRN3 / Fold change vs veh, STRN3 / RFU, ADK / Fold change vs veh, ADK / RFU, RASSF2 / Fold change vs veh, RASSF2 / RFU, WIPF1 / Fold change vs veh, WIPF1 / RFU, LARP1B / Fold change vs veh, LARP1B / RFU, RASA1 / Fold change vs veh, RASA1 / RFU, RB1 / Fold change vs veh, RB1 / RFU, PPFIA1 / Fold change vs veh, PPFIA1 / RFU, MAT2A / Fold change vs veh, MAT2A / RFU, CCT5 / Fold change vs veh, CCT5 / RFU, WDR92 / Fold change vs veh, WDR92 / RFU, CUX1 / Fold change vs veh, CUX1 / RFU, TTC7A / Fold change vs veh, TTC7A / RFU, TMEM135 / Fold change vs veh, TMEM135 / RFU, DEPTOR / Fold change vs veh, DEPTOR / RFU, CPM / Fold change vs veh, CPM / RFU, DNAJB6 / Fold change vs veh, DNAJB6 / RFU, CACNA2D3 / Fold change vs veh, CACNA2D3 / RFU, DTX4 / Fold change vs veh, DTX4 / RFU, TFCP2 / Fold change vs veh, TFCP2 / RFU, GMCL1 /// GMCL1P1 / Fold change vs veh, GMCL1 /// GMCL1P1 / RFU, AEBP2 / Fold change vs veh, AEBP2 / RFU, SNHG1 /// SNORD22 /// SNORD25 /// SNORD26 /// SNORD27 /// SNORD28 /// SNORD29 /// SNORD31 / Fold change vs veh, SNHG1 /// SNORD22 /// SNORD25 /// SNORD26 /// SNORD27 /// SNORD28 /// SNORD29 /// SNORD31 / Fold change (Aza/veh), C12orf56 (ProbeSet 11735607_a_at) / Fold change (ACY-1035/veh), C12orf56 (ProbeSet 11735607_a_at) / Fold change (Aza/veh), FGFR1OP (ProbeSet 11751329_s_at) / Fold change (ACY-1035/veh), FGFR1OP (ProbeSet 11751329_s_at) / Fold change (Aza/veh), VPS36 (ProbeSet 11739960_a_at) / Fold change (ACY-1035/veh), VPS36 (ProbeSet 11739960_a_at) / RFU SYPL1 (11715823_x_at) / Fold change /veh SYPL1 (11715823_x_at) / RFU IGFBP7 (11715501_s_at) / Fold change /veh IGFBP7 (11715501_s_at) / RFU REEP3 (11722064_at) / Fold change /veh REEP3 (11722064_at) / RFU IGLL1 (11728026_x_at) / Fold change /veh IGLL1 (11728026_x_at): dose or concentration left out as unconfirmed.

Structures are written as SMILES.

As for `Nc1ccc(-c2cccs2)cc1NC(=O)c1ccc2c(c1)cc(C1CC1)n2CCN1CCOCC1` [ACY-1035], the “Fold change vs veh, ING1” value is 1.02.
